Columns and labels:
p38 MAPK/MK2 pathway = experiment: Immunoblot of p38 MAPK/MK2 activation after DNA-damaging drugs in U2OS cells; format: cell-based, human; details: U2OS cells, 10 μM drug
Description: 14-3-3 pull-down assays, immunoblotting, and immunofluorescence. U2OS cells were lysed in lysis buffer: 50 mM Tris/HCl, pH7.8, 150 mM NaCl, 1.0% NP-40, 5 mM EDTA, 2 mM DTT, 8 μg/ml pepstatin, 8 μg/ml aprotinin, 8 μg/ml leupeptin, 2 mM Na3VO4, 10 mM NaF, 1 μM microcystin for twenty minutes at 4° C. Clarified lysates (0.5-2 mg protein) were incubated with 20 μL glutathione beads or amylose beads containing 10-20 μg 14-3-3-GST or 14-3-3-MBP, respectively, for 120 minutes at 4° C. Following washing, lysates and bead-bound proteins were analysed by SDS-PAGE, followed by transfer to PVDF membranes and immunoblotted with the indicated antibodies. For immunofluorescence experiments, U2OS cells were seeded onto 18 mm^2 coverslips, irradiated or mock-treated, fixed, extracted, and immunostained as described previously (Clapperton et al., Nat. Struct. Mol. Biol., 11:512-518, 2004).

U2OS cells = experiment: Clonogenic survival assay in U2OS cells; format: cell-based, human; details: 10 μM cisplatin or 1 μM doxorubicin for eight hours, colonies after eight days
Description: The experiments in FIGS. 15A-15C and 16A-16D indicate that MAPKAP kinase-2 is critical for cisplatin- and doxorubicin-triggered G1/S and G2/M arrest. These checkpoint defects in MAPKAP kinase-2 depleted cells might render them more sensitive to the antiproliferative and cytotoxic effects of chemotherapy. To investigate this, control or MAPKAP kinase-2 knockdown U2OS cells were mock treated or incubated with increasing doses of cisplatin or doxorubicin for eight hours, washed, trypsinized and replated, and assayed for colony formation eight days later (FIGS. 16A-16B). […] For example, luciferase shRNA cells treated with either 10 μM cisplatin or 1 μM doxorubicin formed ˜40% of the number of colonies as those formed by untreated cells, while in MAPKAP kinase-2-depleted cells, these same cisplatin and doxorubicin treatments reduced the number of colonies to only 4% and 2%, respectively, of those seen in the untreated cells.
Clonogenic survival assay. Cells were either mock-treated or treated with increasing doses of doxorubicin or cisplatin. After eight hours of treatment, cells were washed three times with growth media and three times with PBS, trypsinized and replated at a concentration of 5000 cells/10 cm^2 dish. After eight days, cells were fixed and stained with 0.1% crystal violet (Sigma-Aldrich). Colonies consisting of >50 cells were counted, and surviving fractions were determined by normalization against untreated cells. Experiments were performed in triplicate and are plotted as mean values with standard deviations indicated by the error bars.

p53−/− MEFs = experiment: FACS cell cycle analysis (PI, phospho-histone H3) in p53−/− MEFs; format: cell-based, mouse; details: MK2 depleted p53−/− MEFs; 10 μM drug, nocodazole added three hours later, thirty hours
Description: FACS analysis. UV irradiation was performed at 254 nm (UV-C) using a Stratalinker 2400 (Stratagene). U2OS cells were fixed in 70% ethanol overnight at −20° C., permeabilized with PBS containing 0.2% Triton X-100 for twenty minutes at 4° C., blocked with 2% FBS in PBS, and incubated with 1 μg of anti-phospho-histone H3 per 10^6 cells for sixty minutes on ice. Following washing, cells were incubated with FITC-conjugated goat anti-rabbit antibody (diluted 1:500) for thirty minutes on ice, washed, and resuspended in PBS containing 50 μg/ml PI for twenty minutes immediately prior to FACS analysis. Analysis was performed using a Becton Dickinson FACS machine with CellQuest software.
To investigate the molecular mechanisms involved in MK2 dependent responses to DNA lesions, we examined cell cycle profiles of control and MK2 depleted p53^−/− MEFs. Asynchronous MK2- or control knock-down p53^−/− MEFs were mock treated or exposed to doxorubicin for thirty hour, and cell cycle distribution monitored by FACS. In one set of experiments the spindle poison nocodazole was added to the media three hours after addition of doxorubicin, to cause any cells progressing through the cell cycle to arrest in mitosis. DNA content was monitored by PI staining; phospho-histone-H3 staining was used as an indicator of mitotic entry. […]

[1] = MAPKAP kinase-2-depleted U2OS cells

Structure (SMILES) | time to MK2 activation (reduction in electrophoretic mobility, pThr-344) (p38 MAPK/MK2 pathway) | number of colonies relative to untreated cells (U2OS cells; [1]) | number of colonies relative to untreated cells (U2OS cells; luciferase shRNA U2OS cells) | cells staining positively for phospho-histone H3 (p53−/− MEFs)
COc1cccc2c1C(=O)c1c(O)c3c(c(O)c1C2=O)C[C@@](O)(C(=O)CO)C[C@@H]3O[C@H]1C[C@H](N)[C@H](O)[C@H](C)O1 [doxorubicin] | Within one hour | 2% | ~40% | 28.5%
N.N.[Cl][Pt][Cl] [cisplatin] | Within one hour | 4% | ~40% | ~25%
